Measurements reported in ChEMBL document CHEMBL1201862, “PubChem BioAssay data set” (2004).
The source made the active and inactive calls.

Columns and labels:
[1] = biological target: T1, Endoribonuclease toxin MazF (Escherichia coli K-12, UniProt P0AE70); assay: fluorescent RNA oligo signal without MazF, dose response, counter-screen for MazEF activator project, biochemical, fluorescence, single-stranded RNase substrate (AID 588502); type: functional
T1 sequence (P0AE70 whole entry): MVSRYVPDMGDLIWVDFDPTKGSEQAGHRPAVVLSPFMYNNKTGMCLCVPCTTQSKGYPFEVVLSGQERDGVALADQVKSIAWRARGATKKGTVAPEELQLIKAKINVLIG

[2] = biological target: T1, Endoribonuclease toxin MazF; assay: MazF toxin RNase activators, dose response, biochemical, fluorescence, single-stranded RNA substrate, uHTS hits (AID 588481); type: functional
[3] = biological target: ATP-dependent molecular chaperone HSP82 (Candida albicans (strain WO-1) (Yeast), UniProt C4YTQ8); assay: loss of DOC-induced GRE-beta-galactosidase reporter signal, dose response, Hsp90 inhibitor project, S. cerevisiae, luminescence (AID 2400); type: functional, cell-based;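 further: beta-galactosidase luminescence from glucocorticoid response element reporter as proxy for Hsp90 function; inhibitor potency where signal loss means Hsp90 inhibition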
Chain of ATP-dependent molecular chaperone HSP82 (C4YTQ8 whole entry): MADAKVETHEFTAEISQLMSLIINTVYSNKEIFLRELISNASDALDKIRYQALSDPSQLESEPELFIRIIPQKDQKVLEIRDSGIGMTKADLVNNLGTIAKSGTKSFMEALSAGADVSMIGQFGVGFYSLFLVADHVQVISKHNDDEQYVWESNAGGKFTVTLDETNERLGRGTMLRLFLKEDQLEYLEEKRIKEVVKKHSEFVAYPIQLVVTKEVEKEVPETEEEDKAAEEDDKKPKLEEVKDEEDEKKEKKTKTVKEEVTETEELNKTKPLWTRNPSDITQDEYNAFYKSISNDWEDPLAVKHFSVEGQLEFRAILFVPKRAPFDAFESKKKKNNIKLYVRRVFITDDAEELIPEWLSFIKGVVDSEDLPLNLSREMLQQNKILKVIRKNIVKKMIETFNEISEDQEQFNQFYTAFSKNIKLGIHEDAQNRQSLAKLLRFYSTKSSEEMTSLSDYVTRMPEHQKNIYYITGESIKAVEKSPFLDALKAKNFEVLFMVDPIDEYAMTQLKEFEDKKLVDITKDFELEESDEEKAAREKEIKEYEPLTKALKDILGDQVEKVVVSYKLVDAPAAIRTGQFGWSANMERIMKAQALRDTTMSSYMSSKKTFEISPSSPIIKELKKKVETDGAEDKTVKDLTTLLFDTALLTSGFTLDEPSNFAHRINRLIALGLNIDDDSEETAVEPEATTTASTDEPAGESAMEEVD

[4] = C. albicans growth with fluconazole, confirmation, fluorescence, retest (AID 2467); type: functional, cell-based
[5] = NIH-3T3 fibroblast cytotoxicity, dose response, cytotoxicity control, cell-based, fluorescence, Alamar Blue, secondary assay (AID 2327); type: functional;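 further: NIH-3T3 mouse fibroblasts cultured with fluconazole at 8 µg/mL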
[6] = biological target: T2, Serine/threonine-protein phosphatase (Candida dubliniensis (strain CD36 / CBS 7987 / NCPF 3949 / NRRLY-17841) (Yeast), UniProt B9W6M3); assay: calcineurin pathway inhibitors in yeast reporter, dose response, S. cerevisiae, CDRE-lacZ, luminescence, secondary (AID 2388); type: functional, cell-based;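 further: yeast reporter cells carrying a calcineurin-responsive lacZ construct stimulated with calcium chloride; luminescent beta-galactosidase reporter signal in whole cells rather than isolated phosphatase activity; potency for inhibition where a drop in reporter signal means calcineurin blockade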
T2 sequence (B9W6M3 whole entry): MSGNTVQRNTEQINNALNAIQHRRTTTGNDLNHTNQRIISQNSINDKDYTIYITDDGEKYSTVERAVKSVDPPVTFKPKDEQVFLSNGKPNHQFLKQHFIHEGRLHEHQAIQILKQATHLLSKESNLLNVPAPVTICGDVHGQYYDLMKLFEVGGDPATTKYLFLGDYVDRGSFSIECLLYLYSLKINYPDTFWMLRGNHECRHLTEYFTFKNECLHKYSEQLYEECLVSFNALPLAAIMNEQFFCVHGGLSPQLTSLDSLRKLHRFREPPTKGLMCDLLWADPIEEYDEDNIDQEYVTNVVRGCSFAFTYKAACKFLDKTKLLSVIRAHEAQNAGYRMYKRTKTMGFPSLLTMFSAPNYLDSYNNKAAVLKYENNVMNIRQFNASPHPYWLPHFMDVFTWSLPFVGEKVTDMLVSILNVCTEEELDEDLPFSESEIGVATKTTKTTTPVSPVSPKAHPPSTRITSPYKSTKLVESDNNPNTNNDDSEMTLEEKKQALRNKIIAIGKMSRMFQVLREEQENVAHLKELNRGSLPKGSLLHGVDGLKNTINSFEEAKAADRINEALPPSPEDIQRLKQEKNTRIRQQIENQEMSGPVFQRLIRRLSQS

[7] = Luminescence Cell-Based Dose Retest to Confirm Inhibitors of Cancer Stem Cells. [Related pubchem assays (depositor defined):AID2717, AID2721]; type: functional, Homo sapiens; settings: Homo sapiens
HeLa = assay: HeLa cell cytotoxicity, dose response, cytotoxicity control for MITF activator project, CellTiter-Glo luminescence, cherry-pick samples (AID 540259); type: functional, cell-based; settings: Homo sapiens
Protein RecA = biological target: T3, Protein RecA (Mycobacterium tuberculosis, UniProt P9WHJ3); assay: Fluorescence Cell-Free Homogeneous Dose Retest to Identify Inhibitors of RecA-Intein Splicing Activity. [Related pubchem assays (depositor defined):AID2097, AID2223, AID489010, AID492950]; type: functional
T3 sequence (P9WHJ3 whole entry): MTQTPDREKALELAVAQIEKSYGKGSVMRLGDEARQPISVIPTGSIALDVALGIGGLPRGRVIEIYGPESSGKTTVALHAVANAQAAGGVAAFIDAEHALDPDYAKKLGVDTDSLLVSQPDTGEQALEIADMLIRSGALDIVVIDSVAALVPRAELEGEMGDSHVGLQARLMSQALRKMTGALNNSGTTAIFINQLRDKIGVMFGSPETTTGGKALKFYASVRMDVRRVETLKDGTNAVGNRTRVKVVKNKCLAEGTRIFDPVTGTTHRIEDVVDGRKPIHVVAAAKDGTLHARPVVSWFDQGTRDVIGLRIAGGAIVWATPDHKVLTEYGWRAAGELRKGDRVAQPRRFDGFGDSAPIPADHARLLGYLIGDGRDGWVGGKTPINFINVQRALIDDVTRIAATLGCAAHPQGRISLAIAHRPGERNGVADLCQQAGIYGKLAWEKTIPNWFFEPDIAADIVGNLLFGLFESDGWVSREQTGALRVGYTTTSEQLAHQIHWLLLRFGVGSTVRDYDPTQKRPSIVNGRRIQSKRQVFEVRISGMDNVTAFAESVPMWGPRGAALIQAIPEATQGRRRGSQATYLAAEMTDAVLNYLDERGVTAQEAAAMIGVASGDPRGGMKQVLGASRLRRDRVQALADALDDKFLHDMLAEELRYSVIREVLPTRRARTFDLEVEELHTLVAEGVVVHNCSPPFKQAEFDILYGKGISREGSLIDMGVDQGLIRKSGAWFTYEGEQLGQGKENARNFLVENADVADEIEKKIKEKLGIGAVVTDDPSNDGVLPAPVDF

Genome polyprotein = Genome polyprotein (dengue virus type 2, UniProt P29990); assay: Dengue-2 NS5 methyltransferase inhibitors, primary screen, biochemical, confirmation dose response (AID 588689); type: functional
Chain of Genome polyprotein (P29990 2492-3391 limits assumed): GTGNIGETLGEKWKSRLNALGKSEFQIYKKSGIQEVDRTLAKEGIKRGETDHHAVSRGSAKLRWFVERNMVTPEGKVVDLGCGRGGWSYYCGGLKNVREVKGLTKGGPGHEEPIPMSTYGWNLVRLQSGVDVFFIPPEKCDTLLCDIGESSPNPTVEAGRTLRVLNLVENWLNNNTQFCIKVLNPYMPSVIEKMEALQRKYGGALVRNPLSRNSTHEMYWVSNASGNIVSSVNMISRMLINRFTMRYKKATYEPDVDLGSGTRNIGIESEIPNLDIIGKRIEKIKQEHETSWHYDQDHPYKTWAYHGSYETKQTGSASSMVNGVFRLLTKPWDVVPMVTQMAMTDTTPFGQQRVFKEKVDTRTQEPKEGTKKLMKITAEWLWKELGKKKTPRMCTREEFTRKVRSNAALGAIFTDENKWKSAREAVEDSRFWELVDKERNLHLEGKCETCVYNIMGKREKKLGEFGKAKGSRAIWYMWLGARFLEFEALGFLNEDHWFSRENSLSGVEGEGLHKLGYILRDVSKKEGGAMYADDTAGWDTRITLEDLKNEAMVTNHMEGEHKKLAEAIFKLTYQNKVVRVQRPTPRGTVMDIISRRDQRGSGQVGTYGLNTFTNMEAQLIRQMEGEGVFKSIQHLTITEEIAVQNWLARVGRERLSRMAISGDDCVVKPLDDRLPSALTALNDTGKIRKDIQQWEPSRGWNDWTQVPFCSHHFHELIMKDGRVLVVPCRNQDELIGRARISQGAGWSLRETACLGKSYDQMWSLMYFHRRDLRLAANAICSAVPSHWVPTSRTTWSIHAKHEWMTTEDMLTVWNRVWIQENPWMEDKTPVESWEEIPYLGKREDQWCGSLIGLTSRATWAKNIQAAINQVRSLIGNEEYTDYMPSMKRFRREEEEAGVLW

[8] = biological target: T4, Replicative DNA helicase DnaB (Mycobacterium tuberculosis, UniProt P9WMR3); assay: DnaB intein splicing inhibitors, dose response, biochemical, cell-free fluorescence (AID 449749); type: functional
T4 sequence (P9WMR3 whole entry): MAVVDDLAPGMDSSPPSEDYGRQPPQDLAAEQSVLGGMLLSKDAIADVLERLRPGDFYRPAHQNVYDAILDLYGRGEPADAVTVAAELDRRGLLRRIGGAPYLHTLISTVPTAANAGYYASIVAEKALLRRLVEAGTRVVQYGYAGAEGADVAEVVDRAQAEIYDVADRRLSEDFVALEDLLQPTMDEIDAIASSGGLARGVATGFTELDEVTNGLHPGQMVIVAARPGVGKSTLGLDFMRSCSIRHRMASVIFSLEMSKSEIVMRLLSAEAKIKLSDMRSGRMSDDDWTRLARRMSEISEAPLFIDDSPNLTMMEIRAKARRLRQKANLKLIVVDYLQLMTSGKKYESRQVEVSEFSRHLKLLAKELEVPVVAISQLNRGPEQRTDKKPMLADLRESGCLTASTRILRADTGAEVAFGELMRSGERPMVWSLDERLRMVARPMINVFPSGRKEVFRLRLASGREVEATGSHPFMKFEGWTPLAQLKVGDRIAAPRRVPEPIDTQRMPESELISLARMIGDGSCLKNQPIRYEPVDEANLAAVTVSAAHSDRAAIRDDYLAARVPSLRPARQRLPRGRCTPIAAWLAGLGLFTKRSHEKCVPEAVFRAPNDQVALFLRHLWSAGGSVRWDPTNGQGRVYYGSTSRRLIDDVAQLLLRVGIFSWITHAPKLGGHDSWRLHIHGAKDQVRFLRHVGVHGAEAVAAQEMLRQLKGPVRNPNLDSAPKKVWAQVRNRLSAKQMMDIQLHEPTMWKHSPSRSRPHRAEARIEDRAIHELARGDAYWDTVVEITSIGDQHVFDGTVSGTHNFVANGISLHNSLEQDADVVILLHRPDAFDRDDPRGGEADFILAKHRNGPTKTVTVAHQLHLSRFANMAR

H9c2 = assay: cells; type: functional, cell-based; settings: Rattus norvegicus, H9c2, Myocardium;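 further: confirmatory concentration-response retest of ultra-high-throughput screening hits for modulation of myocardial damage; cell death induced by hydrogen peroxide oxidative stress; compound pretreatment for 60 min then peroxide exposure for 2 h; potency is for protecting the cells against peroxide damage rather than for killing them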
[9] = biological target: T5, Alkaline phosphatase, tissue-nonspecific isozyme (Homo sapiens, UniProt P05186); assay: TNAP enzyme inhibition by screening hits, dose response, selectivity assay for mouse IAP inhibitor project, biochemical, human TNAP, uHTS hits (AID 488906); type: functional
T5 sequence (P05186 whole entry): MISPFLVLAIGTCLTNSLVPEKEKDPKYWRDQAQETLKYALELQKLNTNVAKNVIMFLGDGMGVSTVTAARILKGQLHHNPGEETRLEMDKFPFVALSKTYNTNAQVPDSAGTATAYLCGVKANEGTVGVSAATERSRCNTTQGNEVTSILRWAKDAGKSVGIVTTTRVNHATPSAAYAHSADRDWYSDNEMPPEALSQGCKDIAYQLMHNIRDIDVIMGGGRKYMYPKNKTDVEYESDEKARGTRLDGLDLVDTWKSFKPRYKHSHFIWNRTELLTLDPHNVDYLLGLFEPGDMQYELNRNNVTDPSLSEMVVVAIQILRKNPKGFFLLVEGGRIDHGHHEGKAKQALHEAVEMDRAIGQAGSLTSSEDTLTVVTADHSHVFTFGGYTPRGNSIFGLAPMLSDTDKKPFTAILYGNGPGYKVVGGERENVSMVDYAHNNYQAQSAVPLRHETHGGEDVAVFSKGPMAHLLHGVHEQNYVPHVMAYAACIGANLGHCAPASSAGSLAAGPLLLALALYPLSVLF

[10] = biological target: Intestinal-type alkaline phosphatase (Mus musculus, UniProt P24822); assay: PubChem AID 488785; type: functional
Chain of Intestinal-type alkaline phosphatase (Mus musculus, UniProt P24822) (P24822 whole entry): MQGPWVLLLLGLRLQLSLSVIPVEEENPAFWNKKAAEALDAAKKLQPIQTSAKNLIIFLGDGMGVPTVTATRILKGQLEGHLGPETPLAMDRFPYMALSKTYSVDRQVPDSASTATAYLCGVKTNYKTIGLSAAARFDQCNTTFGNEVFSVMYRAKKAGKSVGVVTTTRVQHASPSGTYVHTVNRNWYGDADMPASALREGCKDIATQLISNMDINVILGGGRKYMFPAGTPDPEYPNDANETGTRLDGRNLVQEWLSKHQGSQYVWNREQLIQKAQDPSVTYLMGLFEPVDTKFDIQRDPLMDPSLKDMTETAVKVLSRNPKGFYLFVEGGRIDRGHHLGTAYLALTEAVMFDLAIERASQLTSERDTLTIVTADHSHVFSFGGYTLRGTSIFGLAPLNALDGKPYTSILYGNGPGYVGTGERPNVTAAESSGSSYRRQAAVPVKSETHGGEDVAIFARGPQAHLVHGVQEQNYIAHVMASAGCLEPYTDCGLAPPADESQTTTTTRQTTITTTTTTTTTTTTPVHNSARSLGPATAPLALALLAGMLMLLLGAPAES

[11] = biological target: Intestinal-type alkaline phosphatase (Homo sapiens, UniProt P09923); assay: inhibition of human intestinal alkaline phosphatase – biochemical, dose response (AID 488876); type: functional
Chain of Intestinal-type alkaline phosphatase (Homo sapiens, UniProt P09923) (P09923 whole entry): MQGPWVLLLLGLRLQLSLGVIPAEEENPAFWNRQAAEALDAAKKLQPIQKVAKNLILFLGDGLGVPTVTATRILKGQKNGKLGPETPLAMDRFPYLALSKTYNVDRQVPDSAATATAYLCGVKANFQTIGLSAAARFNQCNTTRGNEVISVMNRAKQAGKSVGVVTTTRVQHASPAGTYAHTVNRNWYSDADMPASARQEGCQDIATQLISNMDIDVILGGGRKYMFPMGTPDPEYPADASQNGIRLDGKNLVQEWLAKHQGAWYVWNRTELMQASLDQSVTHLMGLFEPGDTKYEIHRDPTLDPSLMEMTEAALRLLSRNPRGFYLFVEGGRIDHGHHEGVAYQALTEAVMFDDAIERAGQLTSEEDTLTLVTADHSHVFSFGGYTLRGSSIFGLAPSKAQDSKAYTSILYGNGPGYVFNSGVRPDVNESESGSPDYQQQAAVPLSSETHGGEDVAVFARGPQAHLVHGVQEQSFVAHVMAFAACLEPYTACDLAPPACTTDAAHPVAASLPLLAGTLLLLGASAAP

Cytochrome P450 2C9 = Cytochrome P450 2C9 (Homo sapiens, UniProt P11712)
Chain of Cytochrome P450 2C9 (P11712 whole entry): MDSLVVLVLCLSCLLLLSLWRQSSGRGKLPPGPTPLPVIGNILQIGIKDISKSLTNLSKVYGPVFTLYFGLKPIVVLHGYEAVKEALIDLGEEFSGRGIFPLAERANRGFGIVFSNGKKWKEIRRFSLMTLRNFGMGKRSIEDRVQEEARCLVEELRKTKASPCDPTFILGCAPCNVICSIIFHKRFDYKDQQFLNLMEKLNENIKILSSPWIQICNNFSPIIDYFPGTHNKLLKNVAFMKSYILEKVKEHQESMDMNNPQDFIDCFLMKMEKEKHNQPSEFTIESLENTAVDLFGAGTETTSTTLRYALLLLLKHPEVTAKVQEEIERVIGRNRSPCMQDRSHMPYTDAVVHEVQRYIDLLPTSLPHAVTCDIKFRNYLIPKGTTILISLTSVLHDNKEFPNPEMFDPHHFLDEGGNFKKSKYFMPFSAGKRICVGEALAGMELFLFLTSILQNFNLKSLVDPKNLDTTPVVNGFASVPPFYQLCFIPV

Large T antigen = Large T antigen (Simian virus 40, UniProt P03070); type: functional, Betapolyomavirus macacae;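 further: Confirmatory-stage PubChem screen for compounds that inhibit SV40 T antigen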
Chain of Large T antigen (P03070 whole entry): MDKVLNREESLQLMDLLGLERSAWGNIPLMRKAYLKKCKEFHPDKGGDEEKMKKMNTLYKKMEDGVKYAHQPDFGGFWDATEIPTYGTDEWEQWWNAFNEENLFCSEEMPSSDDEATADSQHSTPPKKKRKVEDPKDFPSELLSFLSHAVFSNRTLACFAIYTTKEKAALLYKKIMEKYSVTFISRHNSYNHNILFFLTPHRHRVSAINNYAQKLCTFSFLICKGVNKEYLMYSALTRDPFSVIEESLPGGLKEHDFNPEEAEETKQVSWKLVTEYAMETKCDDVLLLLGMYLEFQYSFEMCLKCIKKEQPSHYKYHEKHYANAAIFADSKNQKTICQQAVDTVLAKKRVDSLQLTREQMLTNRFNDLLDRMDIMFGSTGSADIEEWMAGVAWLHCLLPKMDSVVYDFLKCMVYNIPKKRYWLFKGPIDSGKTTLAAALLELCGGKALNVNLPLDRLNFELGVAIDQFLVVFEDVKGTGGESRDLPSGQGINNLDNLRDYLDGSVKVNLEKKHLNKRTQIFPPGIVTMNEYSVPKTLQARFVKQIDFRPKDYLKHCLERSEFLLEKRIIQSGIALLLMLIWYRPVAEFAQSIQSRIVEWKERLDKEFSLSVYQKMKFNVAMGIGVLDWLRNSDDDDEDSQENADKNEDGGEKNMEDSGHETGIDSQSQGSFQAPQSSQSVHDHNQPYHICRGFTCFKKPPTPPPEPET

[12] = biological target: T6, Rac GTPase-activating protein 1 (Homo sapiens, UniProt Q9H0H5); assay: MgcRacGAP GTPase-activating activity inhibitors, confirmation, biochemical, ADP Hunter fluorescence, primary and confirmatory (AID 624330); type: functional
T6 sequence (Q9H0H5 whole entry): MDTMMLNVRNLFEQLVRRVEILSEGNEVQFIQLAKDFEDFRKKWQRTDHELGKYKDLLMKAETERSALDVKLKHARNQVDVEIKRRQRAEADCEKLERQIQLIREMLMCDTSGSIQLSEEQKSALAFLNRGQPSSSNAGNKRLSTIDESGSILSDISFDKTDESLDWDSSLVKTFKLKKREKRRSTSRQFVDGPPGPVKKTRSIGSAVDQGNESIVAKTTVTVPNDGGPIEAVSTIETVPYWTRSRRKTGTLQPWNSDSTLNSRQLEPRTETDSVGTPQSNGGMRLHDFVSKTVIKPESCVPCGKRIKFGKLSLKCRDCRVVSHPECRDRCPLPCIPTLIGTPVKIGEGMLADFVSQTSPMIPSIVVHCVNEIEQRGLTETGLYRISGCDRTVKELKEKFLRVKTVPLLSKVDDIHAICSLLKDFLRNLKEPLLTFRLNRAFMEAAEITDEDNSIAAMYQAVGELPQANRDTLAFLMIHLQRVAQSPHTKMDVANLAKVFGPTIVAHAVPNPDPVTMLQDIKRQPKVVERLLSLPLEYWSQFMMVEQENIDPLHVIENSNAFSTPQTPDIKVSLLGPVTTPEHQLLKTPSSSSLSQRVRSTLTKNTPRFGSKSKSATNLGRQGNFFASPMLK

[13] = Luminescence Cell-Based Dose Confirmation HTS to Identify Inhibitors of Platelet Dense Granule Release. [Related pubchem assays: 1663 (Primary HTS), 1678 (Summary of Project)]; type: functional
[14] = biological target: Luciferin 4-monooxygenase (Photinus pyralis, UniProt P08659); assay: firefly luciferase enzyme inhibitors, dose response, biochemical, luminescence (AID 1891)
Chain of Luciferin 4-monooxygenase (P08659 whole entry): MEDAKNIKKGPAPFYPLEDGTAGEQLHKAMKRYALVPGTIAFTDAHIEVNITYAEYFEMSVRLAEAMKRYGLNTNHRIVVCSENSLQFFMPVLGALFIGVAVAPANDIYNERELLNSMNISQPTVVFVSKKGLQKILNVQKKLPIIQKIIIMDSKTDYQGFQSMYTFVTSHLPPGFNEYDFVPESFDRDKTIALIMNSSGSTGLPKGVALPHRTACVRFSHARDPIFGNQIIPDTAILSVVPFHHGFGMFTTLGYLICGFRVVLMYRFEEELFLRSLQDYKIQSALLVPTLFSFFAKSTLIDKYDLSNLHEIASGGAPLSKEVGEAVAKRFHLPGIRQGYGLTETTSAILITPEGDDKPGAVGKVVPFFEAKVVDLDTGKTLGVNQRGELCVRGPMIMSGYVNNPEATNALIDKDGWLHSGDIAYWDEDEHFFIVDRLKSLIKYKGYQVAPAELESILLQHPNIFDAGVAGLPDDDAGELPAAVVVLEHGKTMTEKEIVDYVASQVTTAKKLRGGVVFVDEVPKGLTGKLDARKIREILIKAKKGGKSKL

In the case of `COc1ccc2nc(SCC(C)=O)c(C#N)cc2c1`, the EC50 [1] is reported as 16.5 µM (active) and the EC50 [2] is reported as > 99 µM (inactive).
In the case of `CCCC(=O)NC(c1ccco1)c1cc([N+](=O)[O-])c2cccnc2c1O` (stereo not given), the EC50 [3] is reported as > 150 µM (inactive), the EC50 [4] is reported as 0.826 µM (active) and the EC50 [5] is reported as 20.3 µM (active). The EC50 [6] was > 180 µM (inactive) and the AC50 [7] was 2.02 µM (active).
With `CC1=NN(c2ccccc2)C(=O)/C1=C/c1cc(C)n(C2CC2)c1C` the EC50 [1] was > 99 µM (inactive) and the EC50 [2] was > 99 µM (inactive).
For `O=c1oc(-c2cccs2)nc2sc3c(c12)CCCCC3`, the AC50 (HeLa) was 47.1 µM (active).
In the case of `Cc1nn(-c2ccccc2)c2c1C(c1cccs1)C(C#N)=C(N)O2` (stereo not given), the EC50 (Protein RecA) is reported as 1.83 µM (active), the IC50 (Genome polyprotein) is reported as > 100 µM (active) and the AC50 [8] is reported as 7 µM (active).
With `CC(C)(C)c1ccc(OCCCC(=O)NNC(=O)c2ccccc2O)cc1` the EC50 [3] was > 160 µM (inactive), the EC50 [4] was > 38 µM (not active) and the EC50 [5] was 51 µM (inconclusive). For the same compound, the EC50 [6] was > 180 µM (inactive) and the IC50 (H9c2) was > 79 µM (inactive).
With `Cc1ccc(OC(=O)c2cccc(S(=O)(=O)N3CCCC3)c2)c(-n2nc3ccccc3n2)c1` the AC50 (HeLa) was 260 µM (active).
In the case of `Cc1ccc(C(c2c(O)n3c(nc2=O)SCC3)c2c(O)n3c(nc2=O)SCC3)cc1`, the IC50 (Genome polyprotein) is reported as 84.2 µM (active).
With `C=CCn1cc(CN2CCC(C(=O)Nc3cccc(-c4cccc(Cl)c4)c3)CC2)c(C)n1` the IC50 [9] was 5.84 µM (active), the IC50 [10] was 10.3 µM (active) and the IC50 [11] was 14.3 µM (active).
For `Clc1ccc(-c2nnc(CCc3ccccc3)o2)c(Cl)c1`, the AC50 (HeLa) was 78.9 µM (active) and the AC50 (Cytochrome P450 2C9) was 39.8 µM (inconclusive).
With `O=C1/C(=C/c2cccnc2)CCc2c1[nH]c1ccccc21` the EC50 [3] was > 150 µM (inactive), the EC50 [4] was 1.95 µM (active) and the AC50 (HeLa) was 18.7 µM (active). The EC50 [5] was > 160 µM (inactive) and the EC50 [6] was > 180 µM (inactive).
In the case of `Cc1nonc1C(=O)N/N=C/c1ccc(O)c(O)c1`, the IC50 (Large T antigen) is reported as 3.81 µM (active), the IC50 [12] is reported as 18.6 µM (active) and the EC50 [13] is reported as 0.868 µM (active). The EC50 [14] was 4.26 µM (active), the IC50 [9] was 16.8 µM (active) and the IC50 [10] was 9.92 µM (active). For the same compound, the IC50 [11] was 14 µM (active).
For `O=C1c2cccc(O)c2C(=O)c2c(O)cc(CO)cc21` [ALOE-EMODIN], the IC50 [9] was > 100 µM (inactive), the IC50 [10] was 2.88 µM (active) and the IC50 [11] was > 100 µM (inactive).
